Results on five molecules are retold here after patent US12649730B2 (MITOIMMUNE THERAPEUTICS INC., priority 2021, dated 2026).

What all share (type): physicochemical
Data set [1] is described as follows: Stability testing of 5 crystalline forms over 8 weeks at harsh conditions (40° C., 75% relative humidity). Here is the method: Stability testing was carried out over 8 weeks at harsh conditions (40° C., 75%, relative humidity) on the 5 crystalline forms obtained in Example 3.
Data set [2] can be described thus: Water sorption and desorption study, DVS cycle. Particulars: 25° C. Here is the method:
Using SMS DVS Advantage 1, 10 mg sample was placed in a mesh stainless steel basket. The overall test cycle comprises scanning two times (sorption and desorption) at 10% RH intervals in a 40 to 90% range (60 to 360 minutes for each humidity level) at a constant temperature (25° C.). Using SMS DVS Advantage 1, 10 mg of Crystalline Form A was placed in a mesh stainless steel basket. The overall test cycle comprises scanning two times (sorption and desorption) at 10% RH intervals in a 40 to 90% range (60 to 360 minutes for each humidity level) at a constant temperature (25° C.). Approximately 0.7% weight increase and absorption and loss relative to sorption level indicates a non-hygroscopic sample. FIG. 38 is an isotherm curve for Crystalline Form A (weight change % v. RH %), and a kinetic curve of weight change % v. time and relative humidity %.

Data set [3] can be described thus: Pressurization test for Crystalline Form A. Particulars: 3 minutes each at 2, 3 and 4 MPa. The method, then: 100 mg of Crystalline Form A was placed in a die cavity, then made into tablets by pressing for 3 minutes each at pressures of 2, 3 and 4 MPa using an upper punch.
Data set [4] can be described thus: Grinding test for Crystalline Form A. Here is the method:
30 mg Crystalline Form A was manually ground for 5 minutes in a mortar and pestle. […] 30 mg of Crystalline Form A and […] of EtOH were placed in a mortar and pestle, and manually ground for 5 minutes. […] 30 mg of Crystalline Form A and […] of H2O were placed in a mortar and pestle, and manually ground for 5 minutes.

[5] abbreviates: 40° C./75% RH, 1 week, listed as Crystalline Form XII.
The mark [6] stands for this setting: 40° C./75% RH, 2 weeks, listed as Crystalline Form XII.
Where [7] appears, read: 40° C./75% RH, 8 weeks, listed as Crystalline Form XII.
[8] abbreviates: Initial, listed as Crystalline Form XII.

Entries after “also recorded” stand apart in the source; their conditions may differ.

For the molecule `O=S1(=O)CCN(Cc2cc(NC3CCOCC3)c3[nH]c(-c4ccccc4)cc3c2)CC1` [Crystalline Form A, 5-[(1,1-dioxido-4-thiomorpholinyl)methyl]-2-phenyl-N-(tetrahydro-2H-pyran-4-yl)-1H-indol-7-amine], in data set [1] (40° C., 75% relative humidity, 8 weeks), the “Stability judged among the 5 crystalline forms” value was “most stable crystalline form”. Moreover, the Assay turned out to be 101.17% in data set [1] (setting [5]), 102.12% in data set [1] (setting [6]), 102.17% in data set [1] (setting [7]) and 100.00% in data set [1] (Initial). In addition, the Purity in data set [1] (setting [5]) was 99.19%; in data set [1] (setting [6]), 98.69%; in data set [1] (setting [7]) it was 99.88%; in data set [1] (setting [8]), 98.85%. In addition, the “XRPD Patterns” value in data set [1] (setting [5]), in data set [1] (setting [6]), in data set [1] (setting [7]) and in data set [1] (setting [8]) was “Pattern A” throughout. The Hygroscopicity result in data set [2] (DVS, 40 to 90% RH) is recorded as “non-hygroscopic”. For the same molecule, in data set [2] (DVS, 40 to 90% RH), the “Weight increase (water sorption)” value is recorded as “Approximately 0.7%”. The “XRPD analysis after DVS” value in data set [2] (after DVS cycle) is “no change in crystalline form”. Further, in data set [3], the “XRPD analysis after pressing into tablets and grinding” value is reported as “no changes”. In addition, in data set [4] (manually ground 5 minutes in EtOH), the “XRPD analysis after wet grinding in EtOH” value is reported as “no change”. Moreover, the “XRPD analysis after wet grinding in H2O” value in data set [4] (manually ground 5 minutes in H2O) was “no change”. Besides, in data set [4] (manually ground 5 minutes, mortar and pestle), the “XRPD analysis after dry grinding” value is reported as “no change”.

On to `O=S1(=O)CCN(Cc2cc(NC3CCOCC3)c3[nH]c(-c4ccccc4)cc3c2)CC1` [Crystalline Form IV, 5-[(1,1-dioxido-4-thiomorpholinyl)methyl]-2-phenyl-N-(tetrahydro-2H-pyran-4-yl)-1H-indol-7-amine], for which the Assay in data set [1] (40° C./75% RH, 1 week) is 101.81%; in data set [1] (40° C./75% RH, 2 weeks) it was 105.36%; in data set [1] (40° C./75% RH, 4 weeks) it was 99.58%; in data set [1] (40° C./75% RH, 8 weeks), 104.25%; in data set [1] (Initial) it was 100.00%. Further, the Purity came out at 99.73% in data set [1] (40° C./75% RH, 1 week); 99.88% in data set [1] (40° C./75% RH, 2 weeks); 99.87% in data set [1] (40° C./75% RH, 4 weeks); 99.86% in data set [1] (40° C./75% RH, 8 weeks); 99.87% in data set [1] (Initial). In addition, the “XRPD Patterns” value in data set [1] (40° C./75% RH, 1 week) was “Pattern A”; in data set [1] (40° C./75% RH, 2 weeks), “Pattern A”; in data set [1] (40° C./75% RH, 4 weeks) it was “Pattern A”; in data set [1] (40° C./75% RH, 8 weeks) it was “converted into Crystalline Form XII; also recorded: Pattern A”; in data set [1] (Initial), “Pattern IV”.

With `O=S1(=O)CCN(Cc2cc(NC3CCOCC3)c3[nH]c(-c4ccccc4)cc3c2)CC1` [Crystalline Form V, 5-[(1,1-dioxido-4-thiomorpholinyl)methyl]-2-phenyl-N-(tetrahydro-2H-pyran-4-yl)-1H-indol-7-amine], the Assay came to 103.86% in data set [1] (40° C./75% RH, 1 week); 103.99% in data set [1] (40° C./75% RH, 2 weeks); 98.50% in data set [1] (40° C./75% RH, 4 weeks); 104.75% in data set [1] (40° C./75% RH, 8 weeks); 100.00% in data set [1] (Initial). Besides, the Purity is listed as 99.60% in data set [1] (40° C./75% RH, 1 week); 99.21% in data set [1] (40° C./75% RH, 2 weeks); 99.16% in data set [1] (40° C./75% RH, 4 weeks); 99.36% in data set [1] (40° C./75% RH, 8 weeks); 99.37% in data set [1] (Initial). In addition, the “XRPD Patterns” value is on record as “Pattern A” in data set [1] (40° C./75% RH, 1 week); “Pattern A” in data set [1] (40° C./75% RH, 2 weeks); “Pattern A” in data set [1] (40° C./75% RH, 4 weeks); “converted into Crystalline Form XII; also recorded: Pattern A” in data set [1] (40° C./75% RH, 8 weeks); “Pattern V” in data set [1] (Initial).

For the molecule `O=S1(=O)CCN(Cc2cc(NC3CCOCC3)c3[nH]c(-c4ccccc4)cc3c2)CC1` [Crystalline Form VIII, 5-[(1,1-dioxido-4-thiomorpholinyl)methyl]-2-phenyl-N-(tetrahydro-2H-pyran-4-yl)-1H-indol-7-amine], the Assay in data set [1] (40° C./75% RH, 1 week) worked out at 106.67%; in data set [1] (40° C./75% RH, 2 weeks) it was 102.74%; in data set [1] (40° C./75% RH, 4 weeks) it was 105.56%; in data set [1] (40° C./75% RH, 8 weeks) it was 107.08%; in data set [1] (Initial), 100.00%. Besides, the Purity is 99.95% in data set [1] (40° C./75% RH, 1 week); 99.91% in data set [1] (40° C./75% RH, 2 weeks); 99.83% in data set [1] (40° C./75% RH, 4 weeks); 100.00% in data set [1] (40° C./75% RH, 8 weeks); 99.94% in data set [1] (Initial). Besides, the “XRPD Patterns” value in data set [1] (40° C./75% RH, 1 week) was “Pattern A”; in data set [1] (40° C./75% RH, 2 weeks), “Pattern A”; in data set [1] (40° C./75% RH, 4 weeks) it was “Pattern A”; in data set [1] (40° C./75% RH, 8 weeks), “converted into Crystalline Form XII; also recorded: Pattern A”; in data set [1] (Initial) it was “Pattern VIII”.

Take `O=S1(=O)CCN(Cc2cc(NC3CCOCC3)c3[nH]c(-c4ccccc4)cc3c2)CC1` [Crystalline Form XI, 5-[(1,1-dioxido-4-thiomorpholinyl)methyl]-2-phenyl-N-(tetrahydro-2H-pyran-4-yl)-1H-indol-7-amine]: the Assay turned out to be 95.79% in data set [1] (40° C./75% RH, 1 week); 105.59% in data set [1] (40° C./75% RH, 2 weeks); 103.58% in data set [1] (40° C./75% RH, 4 weeks); 104.04% in data set [1] (40° C./75% RH, 8 weeks); 100.00% in data set [1] (Initial). The Purity in data set [1] (40° C./75% RH, 1 week) was 99.70%; in data set [1] (40° C./75% RH, 2 weeks) it was 99.36%; in data set [1] (40° C./75% RH, 4 weeks) it was 99.56%; in data set [1] (40° C./75% RH, 8 weeks), 99.58%; in data set [1] (Initial), 99.55%. Besides, the “XRPD Patterns” value in data set [1] (40° C./75% RH, 4 weeks) is reported as “Pattern A”; in data set [1] (Initial), “Pattern XI”.
